Where “and” joins values, the source holds several entries; their conditions need not be identical. Equal entries are not always repeated. Inconclusive results and toxic doses are left out. The calls were made as follows: active = survival T/C of 150% or more; inactive = T/C below 125% in these data.
Test system: P388 leukemia ip, CD2F1 mice, survival T/C
Experiment: NCI In Vivo Anticancer Drug Screen. Data for tumor model P388 Leukemia (intraperitoneal) in CD2F1 (CDF1) mice
Conditions: endpoint: median survival time, higher = longer survival
Procedure, shortened: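 Mice carrying the transplanted tumor received test compound or vehicle. Survival was recorded in each group, and the value is the treated-group measurement divided by that of the vehicle-treated control group.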

[1] = dose: 12.5 mg/kg/injection, schedule: Q01DX009 (ip), vehicle: saline
[2] = dose: 25.0 mg/kg/injection, schedule: Q01DX009 (ip), vehicle: saline
[3] = dose: 25.0 mg/kg/injection, schedule: Q01DX009 (ip), vehicle: Klucel (hydroxypropylcellulose) (HPC)
[4] = dose: 50.0 mg/kg/injection, schedule: Q01DX009 (ip), vehicle: Klucel (hydroxypropylcellulose) (HPC)
[5] = dose: 100.0 mg/kg/injection, schedule: Q01DX009 (ip), vehicle: Klucel (hydroxypropylcellulose) (HPC)
[6] = dose: 100.0 mg/kg/injection, schedule: Q04DX003 (ip), vehicle: saline with Tween-80
[7] = dose: 50.0 mg/kg/injection, schedule: Q01DX009 (ip), vehicle: saline
[8] = dose: 60.0 mg/kg/injection, schedule: Q01DX005 (ip), vehicle: saline with Tween-80
[9] = dose: 120.0 mg/kg/injection, schedule: Q01DX005 (ip), vehicle: saline with Tween-80
[10] = dose: 240.0 mg/kg/injection, schedule: Q01DX005 (ip), vehicle: saline with Tween-80
[11] = dose: 50.0 mg/kg/injection, schedule: Q01DX005 (ip), vehicle: saline with Tween-80
[12] = dose: 100.0 mg/kg/injection, schedule: Q01DX005 (ip), vehicle: saline with Tween-80
[13] = dose: 50.0 mg/kg/injection, schedule: Q01DX005 (ip), vehicle: Klucel (hydroxypropylcellulose) (HPC)
[14] = dose: 100.0 mg/kg/injection, schedule: Q01DX005 (ip), vehicle: Klucel (hydroxypropylcellulose) (HPC)
[15] = dose: 200.0 mg/kg/injection, schedule: Q01DX005 (ip), vehicle: Klucel (hydroxypropylcellulose) (HPC)
[16] = dose: 50.0 mg/kg/injection, schedule: Q01DX009 (ip), vehicle: saline with Tween-80

Measured: T/C

Nc1ncnc2c1ncn2C(C=O)OC(C=O)CO (configuration not stated)
active: dose: 9.38 mg/kg/injection, schedule: Q04DX003 (ip), vehicle: saline 177 % of control | [1] 150 % of control | [2] 186 % of control | dose: 75.0 mg/kg/injection, schedule: Q04DX003 (ip), vehicle: saline 209 % of control
inactive: dose: 4.4 mg/kg/injection, schedule: Q04DX003 (ip), vehicle: saline 118 % of control | dose: 6.6 mg/kg/injection, schedule: Q04DX003 (ip), vehicle: saline 118 % of control | dose: 37.5 mg/kg/injection, schedule: Q04DX003 (ip), vehicle: saline 118 % of control

CC1([CH2][Hg][Cl])Cc2ccccc2O1 (configuration not stated)
inactive: dose: 0.78 mg/kg/injection, schedule: Q01DX009 (ip), vehicle: saline with Tween-80 91 % of control | dose: 1.56 mg/kg/injection, schedule: Q01DX009 (ip), vehicle: saline with Tween-80 95 % of control | dose: 3.13 mg/kg/injection, schedule: Q01DX009 (ip), vehicle: saline with Tween-80 86 % of control

C=C1C[C@@H](O)C[C@@]2(C)C[C@@H]3OC(=O)C(=C)[C@@H]3C[C@H]12
inactive: dose: 12.5 mg/kg/injection, schedule: Q01DX009 (ip), vehicle: Klucel (hydroxypropylcellulose) (HPC) 99 % of control | [3] 111 % of control | [4] 114 % of control | [5] 114 % of control

CCOC(=CP(=O)(c1ccccc1)c1ccccc1)OCC
inactive: dose: 50.0 mg/kg/injection, schedule: Q01DX005 (ip), vehicle: distilled water + Tween-80 + alcohol 106 % of control | dose: 100.0 mg/kg/injection, schedule: Q01DX005 (ip), vehicle: distilled water + Tween-80 + alcohol 105 % of control | dose: 200.0 mg/kg/injection, schedule: Q01DX005 (ip), vehicle: distilled water + Tween-80 + alcohol 100 % of control

C[N+](C)(CC(=O)Nc1ccc(Cl)c(Cl)c1)CC(=O)c1ccc(Cl)c(Cl)c1
inactive: dose: 25.0 mg/kg/injection, schedule: Q04DX003 (ip), vehicle: saline with Tween-80 100 % of control | dose: 50.0 mg/kg/injection, schedule: Q04DX003 (ip), vehicle: saline with Tween-80 100 % of control | [6] 90 % of control

COc1cc2cnc(-c3ccccn3)c(O)c2cc1OC
inactive: [7] 100 % of control | dose: 100.0 mg/kg/injection, schedule: Q01DX009 (ip), vehicle: saline 90 % of control | dose: 200.0 mg/kg/injection, schedule: Q01DX009 (ip), vehicle: saline 94 % of control

N=C(N)Sc1cc(O)ccc1O
inactive: dose: 75.0 mg/kg/injection, schedule: Q01DX009 (ip), vehicle: saline with Tween-80 118 % of control | dose: 150.0 mg/kg/injection, schedule: Q01DX009 (ip), vehicle: saline with Tween-80 113 % of control

NC(=NC(=O)c1ccccc1)N(CCc1ccccc1)CCc1ccccc1
inactive: [8] 104 % of control | [9] 100 % of control | [10] 109 % of control

Cc1cc(OC(=O)Nc2ccc(Cl)c([N+](=O)[O-])c2)c(Cl)cc1Br
inactive: dose: 50.0 mg/kg/injection, schedule: Q01DX009 (ip), vehicle: saline + alcohol 100 % of control | dose: 100.0 mg/kg/injection, schedule: Q01DX009 (ip), vehicle: saline + alcohol 105 % of control | dose: 200.0 mg/kg/injection, schedule: Q01DX009 (ip), vehicle: saline + alcohol 88 % of control

CCOc1ccccc1N=Nc1c(-c2ccccc2)nn(C(N)=S)c1-c1ccccc1
inactive: [11] 100 % of control | [12] 108 % of control | dose: 200.0 mg/kg/injection, schedule: Q01DX005 (ip), vehicle: saline with Tween-80 101 % of control

COC(=O)C(=O)C(C#N)c1ccc(OC)c(OC)c1 (configuration not stated)
inactive: [8] 99 % of control | [9] 104 % of control | [10] 95 % of control

C[n+]1ccc2cc(-c3ccccc3)c3ccccc3c2c1
inactive: dose: 1.56 mg/kg/injection, schedule: Q01DX009 (ip), vehicle: saline 109 % of control | dose: 3.13 mg/kg/injection, schedule: Q01DX009 (ip), vehicle: saline 116 % of control | dose: 6.25 mg/kg/injection, schedule: Q01DX009 (ip), vehicle: saline 109 % of control

CN(C)CCCNc1cc(/C=C/c2cccc3ccccc23)nc2ccccc12
inactive: [1] 91 % of control | [2] 92 % of control | [7] 92 % of control

CC(C)=Cc1cc(CCC/C(C)=C/Cc2c(O)cc(C)c(C(=O)O)c2O)co1
inactive: dose: 4.5 mg/kg/injection, schedule: Q01DX005 (ip), vehicle: Klucel (hydroxypropylcellulose) (HPC) 100 % of control | dose: 9.0 mg/kg/injection, schedule: Q01DX005 (ip), vehicle: Klucel (hydroxypropylcellulose) (HPC) 91 % of control | dose: 18.0 mg/kg/injection, schedule: Q01DX005 (ip), vehicle: Klucel (hydroxypropylcellulose) (HPC) 92 % of control | dose: 36.0 mg/kg/injection, schedule: Q01DX005 (ip), vehicle: Klucel (hydroxypropylcellulose) (HPC) 98 % of control | [13] 105 % of control | dose: 72.0 mg/kg/injection, schedule: Q01DX005 (ip), vehicle: Klucel (hydroxypropylcellulose) (HPC) 88 % of control | [14] 107 % of control | [15] 98 % of control

COc1cc(OC(=O)NCCCl)cc(OC)c1OC
inactive: [13] 101 % of control | [14] 108 % of control | [15] 92 % of control

Cc1cc(O)c(C(c2ccccn2)c2c(O)cc(C)[nH]c2=O)c(=O)[nH]1
inactive: [16] 102 % of control | dose: 100.0 mg/kg/injection, schedule: Q01DX009 (ip), vehicle: saline with Tween-80 102 % of control | dose: 200.0 mg/kg/injection, schedule: Q01DX009 (ip), vehicle: saline with Tween-80 105 % of control

O=c1[nH]c2c([N+](=O)[O-])cc(Cl)cc2nc1/C=C(\O)c1ccc(F)cc1
inactive: [8] 101 % of control | [9] 102 % of control | [10] 106 % of control

CCCCCC(CN(C)C)C(O)CCc1ccc(Cl)c(Cl)c1 (configuration not stated)
inactive: [3] 106 % of control | [4] 98 % of control | [5] 104 % of control

COc1cc2c(cc1OC)C1CC(OC(=O)c3ccccc3)(c3nccc4cc(OC)c(OC)cc34)CCN1CC2 (configuration not stated)
inactive: dose: 12.5 mg/kg/injection, schedule: Q01DX009 (ip), vehicle: saline with Tween-80 97 % of control | dose: 25.0 mg/kg/injection, schedule: Q01DX009 (ip), vehicle: saline with Tween-80 93 % of control | [16] 95 % of control and 97 % of control

CCN(CC)CCNc1ccc(CO)c2oc3ccc(O)cc3c(=O)c12
active: [11] 171 % of control and 189 % of control | [12] 214 % of control and 217 % of control

COC(=O)C1=C(C(=O)OC)C2C=CC1C(=O)N2/C=C/c1ccccc1 (configuration not stated)
inactive: [6] 102 % of control | dose: 400.0 mg/kg/injection, schedule: Q04DX003 (ip), vehicle: saline with Tween-80 117 % of control

COc1ccc(/C=N/N2CN(C(C)C(=O)O)B(NCCC(C)C)N=C2N)cc1OC (configuration not stated)
inactive: dose: 60.0 mg/kg/injection, schedule: Q01DX005 (ip), vehicle: saline 104 % of control | dose: 120.0 mg/kg/injection, schedule: Q01DX005 (ip), vehicle: saline 105 % of control

CCOC(=O)CC1NCCc2c1[nH]c1ccccc21 (configuration not stated)
inactive: dose: 6.25 mg/kg/injection, schedule: Q01DX001 (ip), vehicle: saline sonified 90 % of control | dose: 12.5 mg/kg/injection, schedule: Q01DX001 (ip), vehicle: saline sonified 90 % of control | dose: 25.0 mg/kg/injection, schedule: Q01DX001 (ip), vehicle: saline sonified 100 % of control

CCCCCCCCCCCCCCCc1cccc(O)c1C(=O)O
inactive: dose: 12.5 mg/kg/injection, schedule: Q01DX005 (ip), vehicle: distilled water + Tween-80 106 % of control | dose: 20.0 mg/kg/injection, schedule: Q01DX009 (ip), vehicle: saline with Tween-80 113 % of control | dose: 25.0 mg/kg/injection, schedule: Q01DX005 (ip), vehicle: distilled water + Tween-80 102 % of control | dose: 40.0 mg/kg/injection, schedule: Q01DX009 (ip), vehicle: saline with Tween-80 111 % of control | dose: 50.0 mg/kg/injection, schedule: Q01DX005 (ip), vehicle: distilled water + Tween-80 107 % of control | dose: 80.0 mg/kg/injection, schedule: Q01DX009 (ip), vehicle: saline with Tween-80 109 % of control | dose: 100.0 mg/kg/injection, schedule: Q01DX005 (ip), vehicle: distilled water + Tween-80 117 % of control

Reference: PubChem BioAssay AID330 (DTP/NCI, 2004)
